# Laboratory results as given in patent US12297187B2, “Compound having cyclic structure” (Daiichi Sankyo Company, Limited, priority 2017, dated 2025).
# Tested on: IL-10
# Assay: Measurement of IL-10 increase rate (LPS-induced inflammation in mice, serum IL-10 by ELISA)
# Format: in vivo
# Conditions: Mus musculus, 2 h, oral 100 mg/kg in 0.5% methyl cellulose, LPS 0.4 mg/kg i.p. one hour later, serum taken one hour after LPS, % control ratio vs 0.5% methyl cellulose group, read-out: IL10 Increase Rate (%)
# Protocol: A test substance was suspended in a 0.5% (w/v) methyl cellulose and orally administered to mice at a dose of 100 mg/kg. One hour later, a lipopolysaccharide (LPS, Sigma-Aldrich, L2630 (trade name)) (0.4 mg/kg) was intraperitoneally administered to induce inflammation. One hour after administration of LPS, blood was taken from the vena cava under anesthesia with isoflurane, placed in a tube containing a serum separating agent, allowed to stand still at room temperature for 20-30 minutes and centrifuged at 4° C. at 12,000 rpm for 5 minutes to obtain the serum. Thereafter, the amount of the IL-10 in the serum was measured by using Mouse IL-10 Quantikine ELISA Kit (R&D systems, M1000B (trade name)) or Mouse IL-10 Immunoassay kit (PerkinElmer, AL502 (trade name)) in accordance with the protocol of the kit. The serum was diluted 10 times with the dilution solution contained in the kit and put in use. IL-10 increase rate (% control ratio) of the compound was calculated in accordance with the following expression: IL-10 increase rate (% control ratio) (IL10 amount in compound administration group)×100/(IL-10 amount in 0.5% (w/v) methyl cellulose administration group)
row,Compound,response vs control in vivo at 100 mg/kg
1,"Cn1c(COc2cc(C(F)(F)F)ccn2)nnc1[C@H]1CC[C@H](c2cnn([C@H]3C[C@H](O)[C@@H](N4CCC4)C3)c2)CC1 (racemic) [Example 28, (1SR,2SR,4RS)-2-(Azetidin-1-yl)-4-(4-{trans-4-[4-methyl-5-({[4-(trifluoromethyl)pyridin-2-yl]oxy}methyl)-4H-1,2,4-triazol-3-yl]cyclohexyl}-1H-pyrazol-1-yl)cyclopentanol]",113%
2,"CN1CCC(c2cn(-c3ccc(-c4nnc(COc5cccc(C(F)(F)F)c5)n4C)cc3)nn2)CC1 [Example 1, 1-Methyl-4-{1-[4-(4-methyl-5-{[3-(trifluoromethyl)phenoxy]methyl}-4H-1,2,4-triazol-3-yl)phenyl]-1H-1,2,3-triazol-4-yl}piperidine]",146%
3,"CC(C)c1cccc(OCc2nnc(-c3ccc(-n4cc(C5CCN(C)CC5)nn4)cn3)n2C)c1 [Example 2, 5-[4-(1-Methylpiperidin-4-yl)-1H-1,2,3-triazol-1-yl]-2-(4-methyl-5-{[3-(propan-2-yl)phenoxy]methyl}-4H-1,2,4-triazol-3-yl)pyridine]",220%
4,"CC(C)c1cccc(OCc2nnc([C@H]3CC[C@H](n4cc(C5(F)CCN(C)CC5)nn4)CC3)n2C)c1 [Example 3, 4-Fluoro-1-methyl-4-{1-[trans-4-(4-methyl-5-{[3-(propan-2-yl)phenoxy]methyl}-4H-1,2,4-triazol-3-yl)cyclohexyl]-1H-1,2,3-triazol-4-yl}piperidine]",179%
5,"CC(C)c1cccc(O[C@H](C)c2nnc([C@H]3CC[C@H](n4cc(C5(F)CCN(C)CC5)nn4)CC3)n2C)c1 [Example 4, 4-Fluoro-1-methyl-4-{1-[trans-4-(4-methyl-5-{(1R)-1-[3-(propan-2-yl)phenoxy]ethyl}-4H-1,2,4-triazol-3-yl)cyclohexyl]-1H-1,2,3-triazol-4-yl}piperidine]",131%
6,"CN1CCC(F)(c2cn([C@H]3CC[C@H](c4nnc(COc5ccc(Cl)c(C(F)(F)F)c5)n4C)CC3)nn2)CC1 [Example 5, 4-{1-[trans-4-(5-{[4-Chloro-3-(trifluoromethyl)phenoxy]methyl}-4-methyl-4H-1,2,4-triazol-3-yl)cyclohexyl]-1H-1,2,3-triazol-4-yl}-4-fluoro-1-methylpiperidine]",206%
7,"CC(C)c1cccc(OCc2nnc([C@H]3CC[C@H](n4cc(-c5ccc([C@@H](C)N6CCC6)cc5)nn4)CC3)n2C)c1 [Example 6, 4-{4-[(1R)-1-(Azetidin-1-yl)ethyl]phenyl}-1-[trans-4-(4-methyl-5-{[3-(propan-2-yl)phenoxy]methyl}-4H-1,2,4-triazol-3-yl)cyclohexyl]-1H-1,2,3-triazole]",243%
8,"CC(C)c1cccc(O[C@@H](C)c2nnc(C34CCC(n5cc(-c6ccc([C@@H](C)N7CCC7)cc6)nn5)(CC3)CC4)n2C)c1 [Example 7, 4-{4-[(1R)-1-(Azetidin-1-yl)ethyl]phenyl}-1-[4-(4-methyl-5-{(1S)-1-[3-(propan-2-yl)phenoxy]ethyl}-4H-1,2,4-triazol-3-yl)bicyclo[2.2.2]oct-1-yl]-1H-1,2,3-triazole]",113%
9,"CC(C)c1cccc(O[C@H](C)c2nnc([C@H]3CC[C@H](n4cc([C@@H]5CC[C@@H](N(C)C)CO5)nn4)CC3)n2C)c1 [Example 8, (3R,6S)—N,N-Dimethyl-6-{1-[trans-4-(4-methyl-5-{(1R)-1-[3-(propan-2-yl)phenoxy]ethyl}-4H-1,2,4-triazol-3-yl)cyclohexyl]-1H-1,2,3-triazol-4-yl}tetrahydro-2H-pyran-3-amine]",197%
10,"CN(C)C12CCC(c3cn([C@H]4CC[C@H](c5nnc(COc6cccc(C(F)(F)F)c6)n5C)CC4)nn3)(CC1)OC2 [Example 9, N,N-Dimethyl-1-{1-[trans-4-(4-methyl-5-{[3-(trifluoromethyl)phenoxy]methyl}-4H-1,2,4-triazol-3-yl)cyclohexyl]-1H-1,2,3-triazol-4-yl}-2-oxabicyclo[2.2.2]octan-4-amine]",182%
11,"Cn1c(COc2cccc(C(F)(F)F)c2)nnc1[C@H]1CC[C@H](n2cc(C34CCC(CN5CCC5)(CC3)CC4)nn2)CC1 [Example 10, 4-[4-(Azetidin-1-ylmethyl)bicyclo[2.2.2]oct-1-yl]-1-[trans-4-(4-methyl-5-{[3-(trifluoromethyl)phenoxy]methyl}-4H-1,2,4-triazol-3-yl)cyclohexyl]-1H-1,2,3-triazole]",390%
12,"CN(C)C12CCC(c3cn([C@H]4CC[C@H](c5nnc(COc6cccc(C(F)(F)F)c6)n5C)CC4)nn3)(CC1)CC2 [Example 11, N,N-Dimethyl-4-{1-[trans-4-(4-methyl-5-{[3-(trifluoromethyl)phenoxy]methyl}-4H-1,2,4-triazol-3-yl)cyclohexyl]-1H-1,2,3-triazol-4-yl}bicyclo[2.2.2]octan-1-amine]",180%
13,"CN(C)C12CC(c3cn([C@H]4CC[C@H](c5nnc(COc6cccc(C(F)(F)F)c6)n5C)CC4)nn3)(C1)C2 [Example 12, N,N-Dimethyl-3-{1-[trans-4-(4-methyl-5-{[3-(trifluoromethyl)phenoxy]methyl}-4H-1,2,4-triazol-3-yl)cyclohexyl]-1H-1,2,3-triazol-4-yl}bicyclo[1.1.1]pentan-1-amine]",177%
14,"CC(C)c1cccc(OCc2nnc([C@@H]3CC[C@@H](n4cc(C5(F)CCN(C)CC5)nn4)CO3)n2C)c1 [Example 13, 4-Fluoro-1-methyl-4-{1-[(3R,6S)-6-(4-methyl-5-{[3-(propan-2-yl)phenoxy]methyl}-4H-1,2,4-triazol-3-yl)tetrahydro-2H-pyran-3-yl]-1H-1,2,3-triazol-4-yl}piperidine]",156%
15,"CC(C)c1cccc(CC2OCCn3c2nnc3[C@H]2CC[C@H](n3cc(C4(F)CCN(C)CC4)nn3)CC2)c1 (stereo partly drawn) [Example 14, 3-{trans-4-[4-(4-Fluoro-1-methylpiperidin-4-yl)-1H-1,2,3-triazol-1-yl]cyclohexyl}-8-[3-(propan-2-yl)benzyl]-5,6-dihydro-8H-[1,2,4]triazolo[3,4-c][1,4]oxazine]",216%
16,"CN1CCC(F)(c2cn([C@H]3CC[C@H](c4nnc5n4CCCC5Oc4cccc(C(F)(F)F)c4)CC3)nn2)CC1 (stereo partly drawn) [Example 15, 3-{trans-4-[4-(4-Fluoro-1-methylpiperidin-4-yl)-1H-1,2,3-triazol-1-yl]cyclohexyl}-8-[3-(trifluoromethyl)phenoxy]-5,6,7,8-tetrahydro[1,2,4]triazolo[4,3-a]pyridine]",227%
17,"CN1CCC(c2cnn(-c3ccc(-c4nnc(COc5cccc(C(F)(F)F)c5)n4C)cc3)c2)CC1 [Example 16, 1-Methyl-4-{1-[4-(4-methyl-5-{[3-(trifluoromethyl)phenoxy]methyl}-4H-1,2,4-triazol-3-yl)phenyl]-1H-pyrazol-4-yl}piperidine]",170%
18,"Cn1c(COc2cccc(C(F)(F)F)c2)nnc1[C@H]1CC[C@H](n2cc([C@H]3CC[C@H](N4CCC4)CC3)cn2)CC1 [Example 17, 3-(trans-4-{4-[trans-4-(Azetidin-1-yl)cyclohexyl]-1H-pyrazol-1-yl}cyclohexyl)-4-methyl-5-{[3-(trifluoromethyl)phenoxy]methyl}-4H-1,2,4-triazole]",334%
19,"CN1CCC(c2cn(-c3ccc(-c4nnc(COc5cccc(C(F)(F)F)c5)n4C)cc3)cn2)CC1 [Example 18, 1-Methyl-4-{1-[4-(4-methyl-5-{[3-(trifluoromethyl)phenoxy]methyl}-4H-1,2,4-triazol-3-yl)phenyl]-1H-imidazol-4-yl}piperidine]",157%
20,"Cn1c(COc2cccc(C(F)(F)F)c2)nnc1[C@H]1CC[C@H](c2cn([C@@H]3CC[C@@H](CN4CCC4)OC3)nn2)CC1 [Example 19, 1,5-Anhydro-6-azetidin-1-yl-2,3,4,6-tetradeoxy-2-{4-[trans-4-(4-methyl-5-{[3-(trifluoromethyl)phenoxy]methyl}-4H-1,2,4-triazol-3-yl)cyclohexyl]-1H-1,2,3-triazol-1-yl}-D-erythro-hexitol]",227%
21,"Cn1c(COc2cc(C(F)(F)F)ccn2)nnc1[C@H]1CC[C@H](c2cn([C@H]3CC[C@H](N4CC(CF)C4)CC3)nn2)CC1 [Example 20, 2-({5-[trans-4-(1-{trans-4-[3-(Fluoromethyl)azetidin-1-yl]cyclohexyl}-1H-1,2,3-triazol-4-yl)cyclohexyl]-4-methyl-4H-1,2,4-triazol-3-yl}methoxy)-4-(trifluoromethyl)pyridine]",176%
22,"Cn1c(COc2cccc(C(F)(F)F)c2)nnc1[C@H]1CC[C@H](c2cnn([C@H]3CC[C@H](N4CCC4)CC3)c2)CC1 [Example 21, 3-(trans-4-{1-[trans-4-(Azetidin-1-yl)cyclohexyl]-1H-pyrazol-4-yl}cyclohexyl)-4-methyl-5-{[3-(trifluoromethyl)phenoxy]methyl}-4H-1,2,4-triazole]",312%
23,"Cn1c(COc2cccc(C(F)(F)F)c2)nnc1[C@H]1CC[C@H](c2cnn([C@@H]3CC[C@@H](CN4CCC4)OC3)c2)CC1 [Example 22, 1,5-Anhydro-6-azetidin-1-yl-2,3,4,6-tetradeoxy-2-{4-[trans-4-(4-methyl-5-{[3-(trifluoromethyl)phenoxy]methyl}-4H-1,2,4-triazol-3-yl)cyclohexyl]-1H-pyrazol-1-yl}-D-erythro-hexitol]",113%
